Publication PMC6792352, “Limited Chemical Structural Diversity Found to Modulate Thyroid Hormone Receptor in the Tox21 Chemical Library” (Environmental Health Perspectives, 2019)
Counter-ions that a name gives are not always drawn.

assay: in vitro; details: rat, gh3-tre-luc cells, AC50 (uM) modified / 1000

| SMILES | CC50 at 24 h |
| --- | --- |
| Cc1oc(C)c(C(=O)Nc2ccccc2)c1C [Methfuroxam] | > 90 µM |
| NC1=NCC2c3ccccc3Cc3ccccc3N12 (centres unmarked) [Epinastine hydrochloride] | > 50 µM |
| Cc1occc1C(=O)Nc1ccc(C(=O)N2CCC(F)(F)/C(=C\C(=O)N3CCC(N4CCCCC4)CC3)c3ccccc32)cc1 [YM218] | 11.8 µM |
| CC1=C(/C=C/C(C)=C/C=C/C(C)=C/C=C/C=C(C)/C=C/C=C(C)/C=C/C2=C(C)C[C@@H](O)CC2(C)C)C(C)(C)C[C@H](O)C1 [Zeaxanthin] | 28.9 µM |
| Sc1ncnc2nc[nH]c12 [6-Mercaptopurine monohydrate] | > 90 µM |
| Cc1ccc([N+](=O)[O-])cc1Cl [2-Chloro-1-methyl-4-nitrobenzene] | > 90 µM |
| COCCOCCOCCOC [Triethylene glycol dimethyl ether] | > 90 µM |
| Cc1ncc2n1-c1ccc(Cl)cc1C(c1ccccc1F)=NC2 [Midazolam hydrochloride] | > 50 µM |
| NCCc1cc[nH]n1 [Betazole hydrochloride] | > 20 µM |
| CC(=O)NS(=O)(=O)c1ccc(N)cc1 [Sulfacetamide] | > 90 µM |
| CC(C)(C)NC[C@H](O)c1ccc(O)cc1Cl [Meluadrine] | > 50 µM |
| CCCCCCCC(=O)Cl [Caprylyl chloride] | > 90 µM |
| CN1CCCN=C1COC(=O)C(O)(c1ccccc1)C1CCCCC1 (centres unmarked) [Oxyphencyclimine hydrochloride] | > 50 µM |
| O=C(O)Cc1ccc(-c2ccccc2)cc1 [Felbinac] | > 20 µM |
| COc1ccc([C@@H]2CC(=O)c3c(O)cc(O[C@@H]4O[C@H](CO[C@@H]5O[C@@H](C)[C@H](O)[C@@H](O)[C@H]5O)[C@@H](O)[C@H](O)[C@H]4O)cc3O2)cc1O [Hesperidin] | > 20 µM |
| CCCCC(CC)COS(=O)(=O)O (centres unmarked) [Sodium ethasulfate] | > 90 µM |
| CCNS(=O)(=O)C(F)(F)C(F)(F)C(F)(F)C(F)(F)C(F)(F)C(F)(F)C(F)(F)C(F)(F)F [N-Ethylperfluorooctanesulfonamide] | > 90 µM |
| CCCCCCOc1ccccc1C(N)=O [Exalamide] | > 50 µM |
| CC1(C)C(=O)NC(=O)N1CO [1-(Hydroxymethyl)-5,5-dimethylhydantoin] | > 90 µM |
| O=C(c1ccccc1)C1CCCCC1 [Cyclohexylphenylketone] | > 90 µM |
| CC(C)CCCCCCCOC(=O)CCCCC(=O)OCCCCCCCC(C)C [Diisodecyl hexanedioate] | > 100 µM |
| C=C[C@]1(C)C[C@@H](OC(=O)CO)[C@]2(C)[C@H](C)CC[C@]3(CCC(=O)[C@H]32)[C@@H](C)[C@@H]1O [Pleuromutilin] | > 50 µM |
| CC(C)CC(C)CC(O)CC(C)C (centres unmarked) [2,6,8-Trimethyl-4-nonanol] | > 90 µM |
| C[C@]12CCC(=O)C=C1CC[C@@H]1[C@@H]2CC[C@@]2(C)[C@H]1CC[C@]2(O)C(=O)CO [Cortodoxone] | > 50 µM |
| NC1CCN(c2nc3c(cc2F)c(=O)c(C(=O)O)cn3-c2ccc(F)cc2F)C1 (centres unmarked) [Tosufloxacin toluenesulfonic acid] | > 50 µM |
| C#CCOC(C(=O)OCCN(C)C)(c1ccccc1)c1ccccc1 [Pargeverine hydrochloride] | > 50 µM |
| C1CCC2OC2C1 (centres unmarked) [Cyclohexene oxide] | > 100 µM |

same assay, conditions: rat, gh3-tre-luc cells, AC50 (uM) modified / 1000, Tox21_110001=Tox21_111308; viability, 1 nM T3 present, 24 h

| SMILES | CC50 at 24 h |
| --- | --- |
| c1ccc2c(c1)sc1ccccc12 [Dibenzothiophene] | > 50 µM |

same assay, conditions: rat, gh3-tre-luc cells, AC50 (uM) modified / 1000, Tox21_110001=Tox21_200060; viability, 1 nM T3 present, 24 h

| SMILES | CC50 at 24 h |
| --- | --- |
| CC(=O)C(C)(C)C [3,3-Dimethyl-2-butanone] | > 100 µM |

same assay, conditions: rat, gh3-tre-luc cells, AC50 (uM) modified / 1000, Tox21_110001=Tox21_200666; viability, 1 nM T3 present, 24 h

| SMILES | CC50 at 24 h |
| --- | --- |
| NNC(=O)c1cccnc1 [Nicotinic acid hydrazide] | > 90 µM |

same assay, conditions: rat, gh3-tre-luc cells, AC50 (uM) modified / 1000, Tox21_110001=Tox21_201194; viability, 1 nM T3 present, 24 h

| SMILES | CC50 at 24 h |
| --- | --- |
| CNNC [1,2-Dimethylhydrazine dihydrochloride] | > 90 µM |

same assay, conditions: rat, gh3-tre-luc cells, AC50 (uM) modified / 1000, Tox21_110001=Tox21_201619; viability, 1 nM T3 present, 24 h

| SMILES | CC50 at 24 h |
| --- | --- |
| CCNc1nc(Cl)nc(NC(C)(C)C#N)n1 [Cyanazine] | > 90 µM |

same assay, conditions: rat, gh3-tre-luc cells, AC50 (uM) modified / 1000, Tox21_110001=Tox21_201640; viability, 1 nM T3 present, 24 h

| SMILES | CC50 at 24 h |
| --- | --- |
| C=C(C)CCl [3-Chloro-2-methylpropene] | > 90 µM |

same assay, conditions: rat, gh3-tre-luc cells, AC50 (uM) modified / 1000, Tox21_110001=Tox21_202607; viability, 1 nM T3 present, 24 h

| SMILES | CC50 at 24 h |
| --- | --- |
| BrCC1CO1 (centres unmarked) [Epibromohydrin] | > 90 µM |

same assay, conditions: rat, gh3-tre-luc cells, AC50 (uM) modified / 1000, Tox21_110001=Tox21_202719; viability, 1 nM T3 present, 24 h

| SMILES | CC50 at 24 h |
| --- | --- |
| CCCCCCBr [1-Bromohexane] | > 100 µM |

same assay, conditions: rat, gh3-tre-luc cells, AC50 (uM) modified / 1000, Tox21_110001=Tox21_302196; viability, 1 nM T3 present, 24 h

| SMILES | CC50 at 24 h |
| --- | --- |
| CC(C)C(C)(N)C#N (centres unmarked) [2-Amino-2,3-dimethylbutanenitrile] | > 90 µM |

same assay, conditions: rat, gh3-tre-luc cells, AC50 (uM) modified / 1000, Tox21_110001=Tox21_303415; viability, 1 nM T3 present, 24 h

| SMILES | CC50 at 24 h |
| --- | --- |
| c1ccc2c(c1)sc1ccccc12 [Dibenzothiophene] | > 90 µM |

same assay, conditions: rat, gh3-tre-luc cells, AC50 (uM) modified / 1000, Tox21_110001=Tox21_303609; viability, 1 nM T3 present, 24 h

| SMILES | CC50 at 24 h |
| --- | --- |
| C=C(C)CCl [3-Chloro-2-methylpropene] | > 9 µM |
